Literature values as cited in patent US20220354960A1, “IMMUNE CHECKPOINT BLOCKING BISPECIFIC MOLECULES” (THE SCRIPPS RESEARCH INSTITUTE, priority 2019, published 2022).

System: melanoma
Conditions: for three-year survival of patients with melanoma: human, in vivo; for overall survival (>5 years): patients with melanoma

Substance | three-year survival of patients with melanoma [%] | overall survival (>5 years) [%]
Pembrolizumab: anti-programmed cell death-1 (PD-1) antibody | ~70 | ~30
Ipilimumab: anti-cytotoxic T-lymphocyte antigen-4 (CTLA-4) antibody | ~70 | ~30
